In ChEMBL document CHEMBL3232845 (Bioorg Med Chem Lett, 2014):

Columns and labels:
[1] = Clearance in mouse at 2.5 mg/kg, iv; format: ADME, organism-based; parameters: dose 2.5 mg/kg, route intravenous; settings: in vivo
[2] = Volume of distribution in mouse; format: ADME, organism-based; settings: in vivo
[3] = Antitumor activity against human LOX cells expressing B-Raf V600E mutant xenografted in nude mouse assessed as tumor growth inhibition at 30 mg/kg qd for 4 days measured on day 8; format: functional; settings: read-out: TGI
[4] = target: RAC-gamma serine/threonine-protein kinase (Homo sapiens) (UniProt Q9Y243); assay: Inhibition of human AKT3 assessed as enzyme activity at 1 uM relative to control; parameters: scale not given: the % may be the effect or the level left
[5] = target: Tyrosine-protein kinase ABL2 (Homo sapiens) (UniProt P42684); assay: Inhibition of human Abl2 assessed as enzyme activity at 1 uM relative to control; parameters: scale not given: the % may be the effect or the level left
[6] = target: Serine/threonine-protein kinase BRSK1 (Homo sapiens) (UniProt Q8TDC3); assay: Inhibition of human BrSK1 assessed as enzyme activity at 1 uM relative to control; parameters: scale not given: the % may be the effect or the level left
[7] = target: Calcium/calmodulin-dependent protein kinase type 1 (Homo sapiens) (UniProt Q14012); assay: Inhibition of human CAMK1 assessed as enzyme activity at 1 uM relative to control; parameters: scale not given: the % may be the effect or the level left
[8] = target: Cyclin-dependent kinase 1/cyclin B1 (Homo sapiens) (UniProt P06493+P14635); assay: Inhibition of human CDK1/cyclinB assessed as enzyme activity at 1 uM relative to control; format: protein-complex assay; parameters: scale not given: the % may be the effect or the level left
[9] = target: Casein kinase II subunit alpha' (Homo sapiens) (UniProt P19784); assay: Inhibition of human CK2alpha2 assessed as enzyme activity at 1 uM relative to control; parameters: scale not given: the % may be the effect or the level left
[10] = target: Death-associated protein kinase 1 (Homo sapiens) (UniProt P53355); assay: Inhibition of human DAPK1 assessed as enzyme activity at 1 uM relative to control; parameters: scale not given: the % may be the effect or the level left
TAK1/TAB1 (Homo sapiens) = TAK1/TAB1 (Homo sapiens) (UniProt Q15750+O43318); assay: Inhibition of human TAK1-TAB1 assessed as enzyme activity at 1 uM relative to control; format: protein-complex assay; parameters: scale not given: the % may be the effect or the level left
[11] = target: Serine/threonine-protein kinase TAO2 (Homo sapiens) (UniProt Q9UL54); assay: Inhibition of human TAO2 assessed as enzyme activity at 1 uM relative to control; parameters: scale not given: the % may be the effect or the level left
[12] = target: Serine/threonine-protein kinase TAO3 (Homo sapiens) (UniProt Q9H2K8); assay: Inhibition of human TAO3 assessed as enzyme activity at 1 uM relative to control; parameters: scale not given: the % may be the effect or the level left
[13] = target: Serine/threonine-protein kinase TBK1 (Homo sapiens) (UniProt Q9UHD2); assay: Inhibition of human TBK1 assessed as enzyme activity at 1 uM relative to control; parameters: scale not given: the % may be the effect or the level left
[14] = target: Serine/threonine-protein kinase WNK2 (Homo sapiens) (UniProt Q9Y3S1); assay: Inhibition of human WNK2 assessed as enzyme activity at 1 uM relative to control; parameters: scale not given: the % may be the effect or the level left
[15] = target: Tyrosine-protein kinase ZAP-70 (Homo sapiens) (UniProt P43403); assay: Inhibition of human ZAP-70 assessed as enzyme activity at 1 uM relative to control; parameters: scale not given: the % may be the effect or the level left
[16] = target: Eukaryotic elongation factor 2 kinase (Homo sapiens) (UniProt O00418); assay: Inhibition of human eEF-2K assessed as enzyme activity at 1 uM relative to control; parameters: scale not given: the % may be the effect or the level left
[17] = target: Mitogen-activated protein kinase 12 (Homo sapiens) (UniProt P53778); assay: Inhibition of human p38gamma assessed as enzyme activity at 1 uM relative to control; parameters: scale not given: the % may be the effect or the level left
[18] = target: Serine/threonine-protein kinase 3 (Homo sapiens) (UniProt Q13188); assay: Inhibition of human MST2 assessed as enzyme activity at 1 uM relative to control; parameters: scale not given: the % may be the effect or the level left
[19] = target: Serine/threonine-protein kinase 24 (Homo sapiens) (UniProt Q9Y6E0); assay: Inhibition of human MST3 assessed as enzyme activity at 1 uM relative to control; parameters: scale not given: the % may be the effect or the level left
[20] = target: Muscle, skeletal receptor tyrosine-protein kinase (Homo sapiens) (UniProt O15146); assay: Inhibition of human MuSK assessed as enzyme activity at 1 uM relative to control; parameters: scale not given: the % may be the effect or the level left
[21] = target: Serine/threonine-protein kinase Nek11 (Homo sapiens) (UniProt Q8NG66); assay: Inhibition of human NEK11 assessed as enzyme activity at 1 uM relative to control; parameters: scale not given: the % may be the effect or the level left
[22] = target: Platelet-derived growth factor receptor beta (Homo sapiens) (UniProt P09619); assay: Inhibition of human PDGFRbeta assessed as enzyme activity at 1 uM relative to control; parameters: scale not given: the % may be the effect or the level left
[23] = target: 3-phosphoinositide-dependent protein kinase 1 (Homo sapiens) (UniProt O15530); assay: Inhibition of human PDK1 assessed as enzyme activity at 1 uM relative to control; parameters: scale not given: the % may be the effect or the level left
[24] = target: Protein kinase C beta type (Homo sapiens) (UniProt P05771); assay: Inhibition of human PKCbeta2 assessed as enzyme activity at 1 uM relative to control; parameters: scale not given: the % may be the effect or the level left
[25] = target: Protein kinase C eta type (Homo sapiens) (UniProt P24723); assay: Inhibition of human PKCeta assessed as enzyme activity at 1 uM relative to control; parameters: scale not given: the % may be the effect or the level left
[26] = target: Protein kinase C zeta type (Homo sapiens) (UniProt Q05513); assay: Inhibition of human PKCzeta assessed as enzyme activity at 1 uM relative to control; parameters: scale not given: the % may be the effect or the level left
[27] = target: Serine/threonine-protein kinase D1 (Homo sapiens) (UniProt Q15139); assay: Inhibition of human PKD1 assessed as enzyme activity at 1 uM relative to control; parameters: scale not given: the % may be the effect or the level left
[28] = target: cGMP-dependent protein kinase 1 (Homo sapiens) (UniProt Q13976); assay: Inhibition of human PRKG1beta assessed as enzyme activity at 1 uM relative to control; parameters: scale not given: the % may be the effect or the level left
[29] = target: Rho-associated protein kinase 2 (Homo sapiens) (UniProt O75116); assay: Inhibition of human ROCK-2 assessed as enzyme activity at 1 uM relative to control; parameters: scale not given: the % may be the effect or the level left
[30] = target: Ribosomal protein S6 kinase alpha-2 (Homo sapiens) (UniProt Q15349); assay: Inhibition of human Rsk3 assessed as enzyme activity at 1 uM relative to control; parameters: scale not given: the % may be the effect or the level left
[31] = target: Fibroblast growth factor receptor 4 (Homo sapiens) (UniProt P22455); assay: Inhibition of human FGFR4 assessed as enzyme activity at 1 uM relative to control; parameters: scale not given: the % may be the effect or the level left
[32] = target: Receptor-type tyrosine-protein kinase FLT3 (Homo sapiens) (UniProt P36888); assay: Inhibition of human Flt3 assessed as enzyme activity at 1 uM relative to control; parameters: scale not given: the % may be the effect or the level left
[33] = target: G protein-coupled receptor kinase 6 (Homo sapiens) (UniProt P43250); assay: Inhibition of human GRK6 assessed as enzyme activity at 1 uM relative to control; parameters: scale not given: the % may be the effect or the level left
[34] = target: Homeodomain-interacting protein kinase 3 (Homo sapiens) (UniProt Q9H422); assay: Inhibition of human HIPK3 assessed as enzyme activity at 1 uM relative to control; parameters: scale not given: the % may be the effect or the level left
[35] = target: Insulin-like growth factor 1 receptor (Homo sapiens) (UniProt P08069); assay: Inhibition of human activated IGF-1R assessed as enzyme activity at 1 uM relative to control; parameters: scale not given: the % may be the effect or the level left
[36] = target: Serine/threonine-protein kinase MARK1 (Homo sapiens) (UniProt Q9P0L2); assay: Inhibition of human MARK1 assessed as enzyme activity at 1 uM relative to control; parameters: scale not given: the % may be the effect or the level left
[37] = target: Dual specificity mitogen-activated protein kinase kinase 6 (Homo sapiens) (UniProt P52564); assay: Inhibition of human MKK6 assessed as enzyme activity at 1 uM relative to control; parameters: scale not given: the % may be the effect or the level left
[38] = target: MAP kinase-interacting serine/threonine-protein kinase 2 (Homo sapiens) (UniProt Q9HBH9); assay: Inhibition of human MKNK2 assessed as enzyme activity at 1 uM relative to control; parameters: scale not given: the % may be the effect or the level left

Sequence of Protein kinase C eta type (Homo sapiens) (P24723 whole entry): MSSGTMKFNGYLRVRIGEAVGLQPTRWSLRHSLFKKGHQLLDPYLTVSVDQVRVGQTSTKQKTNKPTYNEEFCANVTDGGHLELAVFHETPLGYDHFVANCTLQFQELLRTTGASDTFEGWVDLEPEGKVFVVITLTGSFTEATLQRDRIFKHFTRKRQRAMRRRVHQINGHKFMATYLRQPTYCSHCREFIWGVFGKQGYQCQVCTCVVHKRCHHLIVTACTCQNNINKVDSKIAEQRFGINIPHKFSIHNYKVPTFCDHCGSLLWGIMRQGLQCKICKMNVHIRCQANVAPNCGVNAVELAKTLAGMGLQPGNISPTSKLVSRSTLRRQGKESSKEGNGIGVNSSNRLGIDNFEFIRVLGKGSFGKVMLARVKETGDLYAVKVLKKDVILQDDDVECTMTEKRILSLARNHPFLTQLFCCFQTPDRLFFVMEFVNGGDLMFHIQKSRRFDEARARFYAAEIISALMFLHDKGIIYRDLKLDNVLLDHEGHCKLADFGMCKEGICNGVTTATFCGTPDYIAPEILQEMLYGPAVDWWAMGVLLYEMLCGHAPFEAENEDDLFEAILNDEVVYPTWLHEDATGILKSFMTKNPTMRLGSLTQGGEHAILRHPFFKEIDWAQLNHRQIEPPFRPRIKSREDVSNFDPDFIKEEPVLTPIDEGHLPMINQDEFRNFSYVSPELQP
Sequence of Serine/threonine-protein kinase TBK1 (Homo sapiens) (Q9UHD2 whole entry): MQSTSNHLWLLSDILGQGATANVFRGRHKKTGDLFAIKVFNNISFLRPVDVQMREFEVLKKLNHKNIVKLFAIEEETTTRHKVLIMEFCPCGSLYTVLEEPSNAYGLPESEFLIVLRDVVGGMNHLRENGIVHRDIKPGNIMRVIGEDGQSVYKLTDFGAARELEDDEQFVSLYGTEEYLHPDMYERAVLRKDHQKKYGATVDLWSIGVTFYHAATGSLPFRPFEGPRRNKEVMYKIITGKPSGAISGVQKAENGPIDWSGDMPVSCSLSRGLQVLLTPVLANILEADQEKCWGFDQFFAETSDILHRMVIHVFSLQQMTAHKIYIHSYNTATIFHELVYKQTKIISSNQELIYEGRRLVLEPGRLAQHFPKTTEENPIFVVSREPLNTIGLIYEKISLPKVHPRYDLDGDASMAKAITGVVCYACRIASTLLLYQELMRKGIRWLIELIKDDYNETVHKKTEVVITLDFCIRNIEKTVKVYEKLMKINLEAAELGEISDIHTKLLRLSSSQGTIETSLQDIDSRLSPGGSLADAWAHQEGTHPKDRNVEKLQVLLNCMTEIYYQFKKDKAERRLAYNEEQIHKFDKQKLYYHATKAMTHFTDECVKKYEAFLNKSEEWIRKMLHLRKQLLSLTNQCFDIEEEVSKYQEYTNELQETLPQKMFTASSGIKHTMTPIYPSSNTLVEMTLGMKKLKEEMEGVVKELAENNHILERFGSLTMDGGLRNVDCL
Sequence of Muscle, skeletal receptor tyrosine-protein kinase (Homo sapiens) (O15146 whole entry): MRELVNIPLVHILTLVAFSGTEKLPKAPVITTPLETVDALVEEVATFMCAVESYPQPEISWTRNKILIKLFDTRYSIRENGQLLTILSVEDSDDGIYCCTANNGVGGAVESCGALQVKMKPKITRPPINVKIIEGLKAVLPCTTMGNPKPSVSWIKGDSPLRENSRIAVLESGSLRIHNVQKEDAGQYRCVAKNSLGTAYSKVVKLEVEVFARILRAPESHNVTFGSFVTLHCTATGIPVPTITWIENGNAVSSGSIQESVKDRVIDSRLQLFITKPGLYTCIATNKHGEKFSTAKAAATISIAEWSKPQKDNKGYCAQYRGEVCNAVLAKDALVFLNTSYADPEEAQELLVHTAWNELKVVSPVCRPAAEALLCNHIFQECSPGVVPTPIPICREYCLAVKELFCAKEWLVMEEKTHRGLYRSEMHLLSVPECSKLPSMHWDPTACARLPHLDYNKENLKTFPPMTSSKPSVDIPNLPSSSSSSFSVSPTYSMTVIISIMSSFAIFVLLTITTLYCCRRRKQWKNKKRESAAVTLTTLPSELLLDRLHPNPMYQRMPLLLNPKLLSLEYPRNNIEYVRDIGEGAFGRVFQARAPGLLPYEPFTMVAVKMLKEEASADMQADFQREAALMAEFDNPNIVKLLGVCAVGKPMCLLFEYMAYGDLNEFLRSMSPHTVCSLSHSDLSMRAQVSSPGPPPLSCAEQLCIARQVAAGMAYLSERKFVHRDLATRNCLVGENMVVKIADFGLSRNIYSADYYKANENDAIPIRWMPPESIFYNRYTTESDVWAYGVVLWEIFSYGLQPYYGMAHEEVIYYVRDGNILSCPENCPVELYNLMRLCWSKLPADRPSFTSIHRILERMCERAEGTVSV
Sequence of cGMP-dependent protein kinase 1 (Homo sapiens) (Q13976 whole entry): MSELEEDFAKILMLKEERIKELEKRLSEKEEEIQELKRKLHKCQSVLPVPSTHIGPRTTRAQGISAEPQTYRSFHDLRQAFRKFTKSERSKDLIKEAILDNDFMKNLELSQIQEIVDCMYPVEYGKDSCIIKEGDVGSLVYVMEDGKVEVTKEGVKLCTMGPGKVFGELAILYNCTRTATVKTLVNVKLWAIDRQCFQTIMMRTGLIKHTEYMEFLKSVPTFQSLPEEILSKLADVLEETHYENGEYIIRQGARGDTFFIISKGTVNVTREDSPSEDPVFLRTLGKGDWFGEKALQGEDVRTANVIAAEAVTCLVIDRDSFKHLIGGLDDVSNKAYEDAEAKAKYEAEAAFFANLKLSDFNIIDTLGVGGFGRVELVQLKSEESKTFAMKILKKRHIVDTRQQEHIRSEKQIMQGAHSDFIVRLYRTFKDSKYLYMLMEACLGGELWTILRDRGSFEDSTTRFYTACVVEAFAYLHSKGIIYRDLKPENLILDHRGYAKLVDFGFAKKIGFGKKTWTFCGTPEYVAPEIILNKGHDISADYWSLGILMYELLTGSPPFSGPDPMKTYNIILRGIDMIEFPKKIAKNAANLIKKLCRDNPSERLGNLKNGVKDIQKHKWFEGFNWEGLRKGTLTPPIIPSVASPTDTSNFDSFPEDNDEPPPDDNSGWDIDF
Sequence of Serine/threonine-protein kinase BRSK1 (Homo sapiens) (Q8TDC3 whole entry): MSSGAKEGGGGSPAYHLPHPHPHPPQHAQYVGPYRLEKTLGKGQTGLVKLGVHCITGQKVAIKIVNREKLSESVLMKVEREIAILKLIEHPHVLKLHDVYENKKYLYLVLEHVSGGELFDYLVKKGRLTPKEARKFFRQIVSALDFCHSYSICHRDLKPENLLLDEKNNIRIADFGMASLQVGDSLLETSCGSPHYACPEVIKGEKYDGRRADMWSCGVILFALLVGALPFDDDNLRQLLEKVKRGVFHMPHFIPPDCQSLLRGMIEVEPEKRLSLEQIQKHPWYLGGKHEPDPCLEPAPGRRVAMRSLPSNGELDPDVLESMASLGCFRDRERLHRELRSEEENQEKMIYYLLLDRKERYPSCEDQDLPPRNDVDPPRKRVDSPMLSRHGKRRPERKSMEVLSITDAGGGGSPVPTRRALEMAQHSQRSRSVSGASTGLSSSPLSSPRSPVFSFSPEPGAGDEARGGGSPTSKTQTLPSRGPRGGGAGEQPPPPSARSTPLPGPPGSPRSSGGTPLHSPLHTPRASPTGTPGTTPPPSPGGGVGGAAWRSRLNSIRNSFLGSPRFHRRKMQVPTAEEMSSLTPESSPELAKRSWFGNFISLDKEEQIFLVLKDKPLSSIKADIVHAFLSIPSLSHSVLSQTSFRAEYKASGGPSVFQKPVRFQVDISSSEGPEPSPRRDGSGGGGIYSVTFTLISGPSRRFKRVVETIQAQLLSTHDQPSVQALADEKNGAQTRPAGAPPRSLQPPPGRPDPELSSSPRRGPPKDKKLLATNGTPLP
Sequence of Eukaryotic elongation factor 2 kinase (Homo sapiens) (O00418 whole entry): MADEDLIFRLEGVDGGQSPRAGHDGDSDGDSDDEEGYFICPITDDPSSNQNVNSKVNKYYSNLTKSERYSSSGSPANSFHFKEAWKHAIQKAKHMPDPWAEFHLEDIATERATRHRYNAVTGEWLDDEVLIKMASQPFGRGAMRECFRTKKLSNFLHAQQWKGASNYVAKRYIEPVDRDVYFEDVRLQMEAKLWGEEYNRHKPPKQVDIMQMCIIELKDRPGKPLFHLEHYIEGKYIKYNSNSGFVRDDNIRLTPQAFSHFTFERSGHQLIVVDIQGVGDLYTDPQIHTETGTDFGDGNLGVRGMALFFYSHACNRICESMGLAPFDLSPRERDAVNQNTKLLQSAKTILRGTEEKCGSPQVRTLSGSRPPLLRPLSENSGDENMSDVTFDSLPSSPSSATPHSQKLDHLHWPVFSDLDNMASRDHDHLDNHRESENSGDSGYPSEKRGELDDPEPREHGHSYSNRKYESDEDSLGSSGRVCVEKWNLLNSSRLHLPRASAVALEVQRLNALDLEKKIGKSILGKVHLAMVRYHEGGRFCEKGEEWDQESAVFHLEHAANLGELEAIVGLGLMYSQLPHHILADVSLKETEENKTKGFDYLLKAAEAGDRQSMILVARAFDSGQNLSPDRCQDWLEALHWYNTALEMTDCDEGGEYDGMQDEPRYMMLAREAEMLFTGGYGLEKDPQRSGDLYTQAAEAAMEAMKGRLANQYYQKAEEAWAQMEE
Sequence of G protein-coupled receptor kinase 6 (Homo sapiens) (P43250 whole entry, looked up): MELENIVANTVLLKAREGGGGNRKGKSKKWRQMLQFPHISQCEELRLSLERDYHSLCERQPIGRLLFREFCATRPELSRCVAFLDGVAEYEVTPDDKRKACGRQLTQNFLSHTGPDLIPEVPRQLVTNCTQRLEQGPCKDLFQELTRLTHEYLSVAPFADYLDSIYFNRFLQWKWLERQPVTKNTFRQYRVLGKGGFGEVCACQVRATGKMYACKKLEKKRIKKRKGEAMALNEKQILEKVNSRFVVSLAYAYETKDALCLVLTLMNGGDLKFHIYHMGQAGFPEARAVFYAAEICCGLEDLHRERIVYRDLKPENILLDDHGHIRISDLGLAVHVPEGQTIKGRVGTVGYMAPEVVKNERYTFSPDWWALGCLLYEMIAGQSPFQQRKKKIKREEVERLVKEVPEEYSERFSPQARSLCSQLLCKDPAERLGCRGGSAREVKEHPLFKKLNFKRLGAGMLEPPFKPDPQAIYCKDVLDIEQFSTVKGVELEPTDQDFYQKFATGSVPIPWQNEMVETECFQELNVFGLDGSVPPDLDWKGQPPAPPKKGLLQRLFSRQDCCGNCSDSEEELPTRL

- clearance [1]: 1.6 mL/min/kg
- Vd [2]: 0.25 L/kg
- Activity [4]: 109%
- Activity [5]: 108%
- Activity [6]: 102%
- Activity [7]: 101%
- Activity [8]: 103%
- Activity [9]: 99%
- Activity (TAK1/TAB1 (Homo sapiens)): 95.5%
- Activity [11]: 97%
- Activity [12]: 100%
- Activity [13]: 98%
- Activity [14]: 100%
- Activity [15]: 112%
- Activity [16]: 128%
- Activity [17]: 106%
- Activity [18]: 99.5%
- Activity [19]: 100%
- Activity [20]: 95%
- Activity [21]: 93.5%
- Activity [22]: 114%
- Activity [23]: 105%
- Activity [24]: 100%
- Activity [25]: 101%
- Activity [26]: 103%
- Activity [27]: 127%
- Activity [28]: 106%
- Activity [29]: 114%
- Activity [30]: 87%
- Activity [31]: 134%
- Activity [32]: 102%
- Activity [33]: 103%
- Activity [34]: 106%
- Activity [35]: 84%
- Activity [36]: 117%
- Activity [37]: 118%
- Activity [38]: 106%
SMILES: CCCS(=O)(=O)Nc1cccc(Nc2ccc3ncn(C)c(=O)c3c2)c1C#N
- inhibition in vivo at 30 mg/kg [3]: 99%
- Activity [10]: 102%
